Where a name gives a salt, the structure may show the parent alone.
System: Acinetobacter baumannii ATCC17961
Assay: Antimicrobial susceptibility testing: 90% growth inhibitory concentration (IC90) determination, Iso-Sensitest broth
Type: cell-based
Conditions: Acinetobacter baumannii, ATCC17961, 16 h, 90% growth inhibitory concentration, Acinetobacter baumannii ATCC17961, Iso-Sensitest broth, OD 600 nm over 16 h; read-out: ATCC17961 IC90
Protocol: Antimicrobial Susceptibility Testing:
90% Growth Inhibitory Concentration (IC90) Determination
The in vitro antimicrobial activity of the compounds was determined according to the following procedure:
The assay used a 10-points Iso-Sensitest broth medium to measure quantitatively the in vitro activity of the compounds against Acinetobacter baumannii ATCC17978 and Acinetobacter baumannii ATCC17961.
Stock compounds in DMSO were serially twofold diluted (e.g. range from 50 to 0.097 μM final concentration) in 384 wells microtiter plates and inoculated with 49 μl the bacterial suspension in Iso-Sensitest medium to have a final cell concentration of 5×10^(5) CFU/ml in a final volume/well of 50 ul/well. Microtiter plates were incubated at 35±2° C.
Bacterial cell growth was determined with the measurement of optical density at λ=600 nm each 20 minutes over a time course of 16 h. Growth inhibition was calculated during the logarithmic growth of the bacterial cells with determination of the concentration inhibiting 50% (IC50) and 90% (IC90) of the growth.
Table 1 provides the 90% growth inhibitory concentrations (IC90) in micromoles per liter of the compounds of present invention obtained against the strain Acinetobacter baumannii ATCC17978 and Acinetobacter baumannii ATCC17961.

IC90	SMILES
72 nM	COc1ccc(-c2cnc3c(Nc4ccc(C(=O)N5CCC(C(=O)NCC(O)CN(C)C)CC5)c(C)c4)nccn23)c(F)c1F (centres unmarked) [Example 89, 1-(4-((3-(2,3-difluoro-4-methoxyphenyl)imidazo[1,2-a]pyrazin-8-yl)amino)-2-methylbenzoyl)-N-(3-(dimethylamino)-2-hydroxypropyl)piperidine-4-carboxamide]
84 nM	COc1ccc(-c2cnc3c(Nc4ccc(C(=O)N5CCN(C(=O)[C@@H]6C[C@@H](O)CN6)CC5)c(C)c4)nccn23)c(F)c1Cl [Example 93, (4-(4-((3-(3-chloro-2-fluoro-4-methoxyphenyl)imidazo[1,2-a]pyrazin-8-yl)amino)-2-methylbenzoyl)piperazin-1-yl)((2S,4R)-4-hydroxypyrrolidin-2-yl)methanone hydrochloride]
69 nM	Cc1cc(Nc2nccn3c(-c4ccc(OCC#N)c(Cl)c4)cnc23)ccc1C(=O)N1CCN(C(=O)[C@@H]2C[C@@H](O)CN2)CC1 [Example 94, 2-(2-chloro-4-(8-((4-(4-((2S,4R)-4-hydroxypyrrolidin-2-carbonyl)piperazine-1-carbonyl)-3-methylphenyl)amino)imidazo[1,2-a]pyrazin-3-yl)phenoxy)acetonitrile]
33 nM	C#CCOc1ccc(-c2cnc3c(Nc4ccc(C(=O)N5CCC(CN)CC5)c(C)c4)nccn23)c(F)c1F [Example 121, [4-(aminomethyl)-1-piperidyl]-[4-[[3-(2,3-difluoro-4-prop-2-ynoxy-phenyl)imidazo[1,2-a]pyrazin-8-yl]amino]-2-methyl-phenyl]methanone; formic acid]
117 nM	COc1ccc(-c2cnc3c(Nc4ccc(C(=O)N5CCNCC5)c(C)c4)nccn23)c(F)c1F [Example 141, [4-[[3-(2,3-difluoro-4-methoxyphenyl)imidazo[1,2-a]pyrazin-8-yl]amino]-2-methylphenyl]-piperazin-1-ylmethanone]
46 nM	Cc1cc(Nc2nccn3c(-c4ccc(OCC#N)c(F)c4Cl)cnc23)ccc1C(=O)N1CCN(C(=O)N[C@@H](C)CN)CC1 [Example 162, N-[(1S)-2-amino-1-methyl-ethyl]-4-[4-[[3-[2-chloro-4-(cyanomethoxy)-3-fluoro-phenyl]imidazo[1,2-a]pyrazin-8-yl]amino]-2-methyl-benzoyl]piperazine-1-carboxamide formate]
35 nM	Cc1cc(Nc2nccn3c(-c4ccc(OC(F)F)cc4)cnc23)ccc1C(=O)N1CCN(C(=O)C2CCNCC2)CC1 [Example 173, [4-[[3-[4-(difluoromethoxy)phenyl]imidazo[1,2-a]pyrazin-8-yl]amino]-2-methyl-phenyl]-[4-(piperidine-4-carbonyl)piperazin-1-yl]methanone hydrochloride]
41 nM	COc1ccc(-c2cnc3c(Nc4ccc(C(=O)N5CCN(C(=O)[C@@H]6C[C@@H](O)CN6)CC5)c(C)c4)nccn23)c(F)c1F [Example 184, [4-[[3-(2,3-difluoro-4-methoxy-phenyl)imidazo[1,2-a]pyrazin-8-yl]amino]-2-methyl-phenyl]-[4-[(2S,4R)-4-hydroxypyrrolidine-2-carbonyl]piperazin-1-yl]methanone hydrochloride]
51 nM	Cc1cc(Nc2nccn3c(-c4ccc(OCC#N)c(F)c4F)cnc23)ccc1C(=O)N1CCN(C(=O)[C@@H]2CCNC[C@@H]2O)CC1 [Example 188, 2-[2,3-difluoro-4-[8-[4-[4-[(3R,4R)-3-hydroxypiperidine-4-carbonyl]piperazine-1-carbonyl]-3-methyl-anilino]imidazo[1,2-a]pyrazin-3-yl]phenoxy] acetonitrile formate]
46 nM	Cc1cc(Nc2nccn3c(-c4ccc(OCC#N)c(F)c4F)cnc23)ccc1C(=O)N1CCN(C(=O)[C@@H]2CCNC[C@H]2O)CC1 [Example 190, 2-[2,3-difluoro-4-[8-[4-[4-[(3S,4R)-3-hydroxypiperidine-4-carbonyl]piperazine-1-carbonyl]-3-methyl-anilino]imidazo[1,2-a]pyrazin-3-yl]phenoxy] acetonitrile formate]

Further lines, the molecule ahead of its results:

SMILES	IC90
COc1ccc(-c2cnc3c(Nc4ccc(C(=O)N5CCC(C(=O)NCC(O)CN6CCNCC6)CC5)c(C)c4)nccn23)c(F)c1F (centres unmarked) [Example 90, 1-(4-((3-(2,3-difluoro-4-methoxyphenyl)imidazo[1,2-a]pyrazin-8-yl)amino)-2-methylbenzoyl)-N-(2-hydroxy-3-(piperazin-1-yl)propyl)piperidine-4-carboxamide hydrochloride]	116 nM
COc1ccc(-c2cnc3c(Nc4ccc(C(=O)N5CCN(C(=O)[C@@H]6C[C@@H](O)CN6)CC5)c(C)c4)nccn23)cc1Cl [Example 92, (4-(4-((3-(3-chloro-4-methoxyphenyl)imidazo[1,2-a]pyrazin-8-yl)amino)-2-methylbenzoyl)piperazin-1-yl)((2S,4R)-4-hydroxypyrrolidin-2-yl)methanone hydrochloride]	98 nM
COc1ccc(-c2cnc3c(Nc4ccc(C(=O)N5CCN(C(=O)NCCN)CC5)c(C)c4)nccn23)c(Cl)c1F [Example 153, N-(2-aminoethyl)-4-[4-[[3-(2-chloro-3-fluoro-4-methoxy-phenyl)imidazo[1,2-a]pyrazin-8-yl]amino]-2-methyl-benzoyl]piperazine-1-carboxamide formate]	50 nM
Cc1cc(Nc2nccn3c(-c4ccc(OCC#N)c(F)c4Cl)cnc23)ccc1C(=O)N1CCN(C(=O)N2CCO[C@@H](CN)C2)CC1 [Example 158, 2-[4-[8-[4-[4-[(2S)-2-(aminomethyl)morpholine-4-carbonyl]piperazine-1-carbonyl]-3-methyl-anilino]imidazo[1,2-a]pyrazin-3-yl]-3-chloro-2-fluoro-phenoxy]acetonitrile formate]	74 nM
Cc1cc(Nc2nccn3c(-c4ccc(OCC#N)c(F)c4Cl)cnc23)ccc1C(=O)N1CCN(C(=O)NCCN)CC1 [Example 159, N-(2-aminoethyl)-4-[4-[[3-[2-chloro-4-(cyanomethoxy)-3-fluoro-phenyl]imidazo[1,2-a]pyrazin-8-yl]amino]-2-methyl-benzoyl]piperazine-1-carboxamide formate]	35 nM
COc1ccc(-c2cnc3c(Nc4ccc(C(=O)N5CCN(C(=O)N6CCN[C@@H](CO)C6)CC5)c(C)c4)nccn23)c(F)c1F [Example 172, (R)-(4-(4-((3-(2,3-difluoro-4-methoxyphenyl)imidazo[1,2-a]pyrazin-8-yl)amino)-2-methylbenzoyl)piperazin-1-yl)(3-(hydroxymethyl)piperazin-1-yl)methanone hydrochloride]	78 nM
Cc1cc(Nc2nccn3c(-c4ccc(OCC#N)c(F)c4F)cnc23)ccc1C(=O)N1CCN(C(=O)[C@H]2CCNC[C@H]2O)CC1 [Example 189, 2-[2,3-difluoro-4-[8-[4-[4-[(3S,4S)-3-hydroxypiperidine-4-carbonyl]piperazine-1-carbonyl]-3-methyl-anilino]imidazo[1,2-a]pyrazin-3-yl]phenoxy] acetonitrile formate]	60 nM
Cc1cc(Nc2nccn3c(-c4ccc(OCC#N)c(F)c4F)cnc23)ccc1C(=O)N1CCN(C(=O)[C@H]2CCNC[C@@H]2O)CC1 [Example 191, 2-[2,3-difluoro-4-[8-[4-[4-[(3R,4S)-3-hydroxypiperidine-4-carbonyl]piperazine-1-carbonyl]-3-methyl-anilino]imidazo[1,2-a]pyrazin-3-yl]phenoxy] acetonitrile formate]	73 nM
Cc1cc(Nc2nccn3c(-c4ccc(OCC#N)c(F)c4F)cnc23)ccc1C(=O)N1CCN(C(=O)C2CCNCC2)CC1 [Example 197, 2-[2,3-difluoro-4-[8-[3-methyl-4-[4-(piperidine-4-carbonyl)piperazine-1-carbonyl]anilino]imidazo [1,2-a]pyrazin-3-yl]phenoxy] acetonitrile formate]	52 nM
Cc1cc(Nc2nccn3c(-c4ccc(OCC#N)c(F)c4F)cnc23)ccc1C(=O)N1CCN(C(=O)[C@@H]2CCNC2)CC1 [Example 198, 2-[2,3-difluoro-4-[8-[3-methyl-4-[4-[(3R)-pyrrolidine-3-carbonyl]piperazine-1-carbonyl]anilino]imidazo[1,2-a]pyrazin-3-yl]phenoxy] acetonitrile formate]	39 nM
Cc1cc(Nc2nccn3c(-c4ccc(OCC#N)c(F)c4F)cnc23)ccc1C(=O)N1CCN(C(=O)[C@@H]2C[C@@H](O)CN2)CC1 [Example 200, 2-[2,3-difluoro-4-[8-[4-[4-[(2S,4R)-4-hydroxypyrrolidine-2-carbonyl]piperazine-1-carbonyl]-3-methyl-anilino]imidazo[1,2-a]pyrazin-3-yl]phenoxy] acetonitrile formate]	67 nM
COc1ccc(-c2cnc3c(Nc4ccc(C(=O)N5CCN(C(=O)C6(O)CCNCC6)CC5)c(C)c4)nccn23)c(F)c1F [Example 204, [4-[[3-(2,3-difluoro-4-methoxy-phenyl)imidazo[1,2-a]pyrazin-8-yl]amino]-2-methyl-phenyl]-[4-(4-hydroxypiperidine-4-carbonyl)piperazin-1-yl]methanone hydrochloride]	46 nM
Cc1cc(Nc2nccn3c(-c4ccc(OCC#N)c(F)c4F)cnc23)ccc1C(=O)N1CCN(C(=O)C2(O)CCNCC2)CC1 [Example 206, 2-[2,3-difluoro-4-[8-[4-[4-(4-hydroxypiperidine-4-carbonyl)piperazine-1-carbonyl]-3-methyl-anilino]imidazo[1,2-a]pyrazin-3-yl]phenoxy] acetonitrile formate]	36 nM
